Patent publication US20250120987A1, “METHOD FOR TREATING CANCER USING HUMAN MIT[…] ENZYME 2 INHIBITOR” (priority 2023, published 2025)

What was measured:
human ME2 = target: T1, human ME2 (Homo sapiens, UniProt P23368); test: ME2 inhibition test; format: biochemical; settings: for IC50: Table 1, 40 mM L-malate, 2 mM NAD+, 10 mM MgCl2, read-out: IC50 with respect to ME2; for inhibiting the activity of ME2 (in words): summary of Table 1
T1 construct: made in house; host or cells: Escherichia coli BL21
T1 sequence (P23368 19-584): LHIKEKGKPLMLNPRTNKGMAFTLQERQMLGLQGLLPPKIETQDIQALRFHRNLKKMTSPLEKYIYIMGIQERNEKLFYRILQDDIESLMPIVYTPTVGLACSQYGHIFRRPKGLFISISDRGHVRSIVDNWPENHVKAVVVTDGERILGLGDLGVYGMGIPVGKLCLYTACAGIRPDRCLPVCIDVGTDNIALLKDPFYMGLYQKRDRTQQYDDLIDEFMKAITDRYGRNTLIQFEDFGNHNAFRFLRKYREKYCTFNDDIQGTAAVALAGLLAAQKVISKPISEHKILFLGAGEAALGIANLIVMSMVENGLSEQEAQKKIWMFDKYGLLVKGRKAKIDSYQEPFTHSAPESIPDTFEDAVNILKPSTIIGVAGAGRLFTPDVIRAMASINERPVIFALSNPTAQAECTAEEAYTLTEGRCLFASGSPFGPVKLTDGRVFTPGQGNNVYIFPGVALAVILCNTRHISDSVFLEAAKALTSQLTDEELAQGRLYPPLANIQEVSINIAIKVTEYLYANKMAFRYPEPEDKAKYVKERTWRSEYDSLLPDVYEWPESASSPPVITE

H1299 cells [1] = test: Pyruvate and NADPH content of treated cells; format: cell-based, human; settings: 25 μM, 48 hours, 20 mM L-malate
Description: (§1) H1299 cells (3×10^5 cells) were cultured for 24 hours in separate culture media each containing 20 mM L-malate, with the culture environment being at 37° C. and containing 5% carbon dioxide. […]. After that, the cultured cells in each group were collected and were centrifuged in 100 μL of phosphate buffer, and the supernatants were collected. Once the proteins in the supernatants were removed, a pyruvate colorimetric/fluorometric assay kit and a PicoProbe™ NADPH quantification fluorometric assay kit were used to analyze the pyruvate content and NADPH content of the cells respectively (Ex/Em: at 535 nm and 587 nm). […]

MCF-7 cells [2] = test: Pyruvate and NADPH content of treated cells; format: cell-based, human; settings: 25 μM, 48 hours
Description: as §1
In addition, MCF-7 cells (6×10^5 cells) were cultured in the same way as the H1299 cells and had their pyruvate content and NADPH content analyzed.

H1299 cells [3] = test: Cell invasion assay (Transwell/Matrigel); format: cell-based, human; settings: 150 μM, 24 hours
Description: (§2) […]. A culture medium containing 10% fetal bovine serum was subsequently added to the lower chambers. […] The vehicle groups, which were formed by cells to which no EA or MDSA was added, were provided to enable the calculation of the amount of the cells in each EA or MDSA-treated group in relation to the amount of the cells in the corresponding vehicle group at the end of the assay so that changes in the relative amounts of cells can be observed with ease.

MCF-7 cells [4] = test: Cell invasion assay (Transwell/Matrigel); format: cell-based, human; settings: 150 μM, 24 hours
Description: as §2

H1299 cells [5] = test: ATP and ROS content of treated cells; format: cell-based, human; settings: 150 μM, 48 hours
Description: H1299 cells (3×10^5 cells) were cultured in separate culture media each containing 20 mM L-malate. […]. Also, a ROS assay kit (#cat.MAK143, Sigma-Aldrich, St. Louis, MO, USA) was used to analyze the ROS contents of the cells, and the results are shown in FIG. 8. […]

MCF-7 cells [6] = test: Seahorse XF cell mito stress test (oxygen consumption rate); format: cell-based, human
Description: (§9) Finally, a Seahorse XFe24 analyzer was used to perform a Seahorse XF cell mito stress test on the cells to obtain the oxygen consumption rates (OCR) of the cells, and the test results are shown in FIG. 9 to FIG. 18. The control groups were formed by cells to which no EA or MDSA was added.

H1299 cells [7] = test: as above; format: cell-based, human; settings: 75 and 150 μM, 3 hours
Description: as §9

HL-60 cells [8] = test: Mass spectrometric analysis of metabolic intermediates; format: cell-based, human; settings: 150 μM, UPLC-MS
Description: The Na2EA-treated HL-60 cells (1×10^7 cells) and the HL-60 cells untreated with NazEA (1×10^7 cells) in example 10 were taken, added into 1 mL of 80% methanol, and centrifuged at 4° C. and 12,000×g for 10 minutes. After the supernatants were evaporated with nitrogen gas, an analysis was performed using a Waters ultra-high performance liquid chromatograph coupled with Waters Xevo TQ-S MS (Waters Corp. Milford, MA, USA).

HL-60 cells [9] = test: Cell survival assay; format: cell-based, human
Description: (§3) In the following assay, therefore, the NazEA dosage of 150 μM was used.

MV4-11 cells [10] = test: Cell survival assay; format: cell-based, human
Description: as §3

THP-1 cells [11] = test: Cell survival assay; format: cell-based, human
Description: as §3

MV4-11 cells [12] = test: Oxygen consumption rate of AML cells; format: cell-based, human; settings: 150 μM
HL-60 cells [13] = test: Oxygen consumption rate of AML cells; format: cell-based, human; settings: 150 μM
THP-1 cells [14] = test: Animal test, ASID mice transplanted with THP-1 cells; format: in vivo; settings: 4 mg/kg, intravenous, day 21
Description: (§4) A plurality of 8-week-old ASID mice (or mice with advanced severe immunodeficiency, or more specifically NOD.Cg-Prkde^scidIl2rg^tm1Wjl/YckNarl mice) were randomly divided into 6 groups. Each group of mice was intravenously injected with one of a plurality of differently treated AML cell variants at a frequency of 5 days per week for 4 weeks. The AML cell variants injected into the 6 groups of mice are as follows: • Group 1-1: THP-1 cells • Group 2-1: THP-1 cells with EA (at a dosage of 4 mg/kg) • Group 3-1: THP-1 cells with Na2EA (at a dosage of 4 mg/kg) • Group 1-2: MV4-11 cells • Group 2-2: MV4-11 cells with EA (at a dosage of 4 mg/kg) • Group 3-2: MV4-11 cells with Na2EA (at a dosage of 4 mg/kg)
(§5) On the 21st day of the test, peripheral blood was collected from the submandibular vein of the mice, and bone marrow was collected as well. The blood and bone marrow were stained with specific markers (CD33 and CD45) and then reacted with a fluorescent antibody, before the CD33+ or CD45^+-stained cells were quantified with a flow cytometer.

THP-1 cells [15] = test: Oxygen consumption rate of AML cells; format: cell-based, human; settings: 150 μM
HL-60 cells [16] = test: Apoptosis rate (Annexin V, flow cytometer); format: cell-based, human; settings: 150 μM
Description: (§6) HL-60 cells, THP-1 cells, and MV4-11 cells were each divided into two groups, namely a vehicle group to be cultured in an RPMI culture medium and a group to be cultured in an RPMI culture medium containing 150 μM Na2EA. After culturing for 24 hours, the culture media were renewed. After culturing for another 48 hours, a commercially available apoptosis detection kit (Annexin V Apoptosis Detection Kit) and flow cytometer were used to analyze the apoptosis rates of the cells, and the results are shown in FIG. 34. In addition, a commercially available cell viability assay kit (CellTiter-Glo® 2.0 Cell Viability Assay Kit), a NAD/NADH-Glo™ assay kit, a commercially available intracellular ROS assay kit (#cat.MAK143, Sigma-Aldrich, St. Louis, MO, USA), and a commercially available pyruvate colorimetric/fluorometric assay kit were used to analyze the NADPH, ROS, and ATP contents of each group of cells, and the results are shown in FIG. 35 to FIG. 37.

MV4-11 cells [17] = test: Apoptosis rate (Annexin V, flow cytometer); format: cell-based, human; settings: 150 μM
Description: as §6

THP-1 cells [18] = test: Apoptosis rate (Annexin V, flow cytometer); format: cell-based, human; settings: 150 μM
Description: as §6

HL-60 cells [19] = test: Metabolite contents of AML cells (NADPH, ROS, ATP, pyruvate, NADH, glutamic acid); format: cell-based, human; settings: 150 μM
Description: as §6
(§7) Furthermore, the cells in each group were stained with ATP-Red Live Cell Dye (BioTracker™ ATP-Red Live Cell Dye) and were observed and quantified under a fluorescence microscope, with the quantification results shown in FIG. 38. The oxygen consumption rate of each group of cells was also determined in the same way as in example 6, with the introduction of different stress testing conditions, and the results are shown in FIG. 39 to FIG. 44.
(§8) Besides, the […], pyruvate, NAD^+, NADH, and glutamic acid contents of each group of cells were analyzed with a NAD/NADH-Glo™ assay kit, a commercially available pyruvate colorimetric/fluorometric assay kit, and a commercially available Glutamine/Glutamate-Glo™ assay kit (#Cat. J8021; Promega, Madison, WI, USA) in the same way as in example 9, and the results are shown in FIG. 45 to FIG. 48.

MV4-11 cells [20] = test: as above; format: cell-based, human; settings: 150 μM
Description: as §6, §7, §8

THP-1 cells [21] = test: as above; format: cell-based, human; settings: 150 μM
Description: as §6, §7, §8

MV4-11 cells [22] = test: Animal test, ASID mice transplanted with MV4-11 cells; format: in vivo; settings: 4 mg/kg, intravenous, day 21
Description: as §4, §5

H1299 cells [23] = settings: 150 μM, 48 hours
Description: (§10) A 24-well plate was inoculated with H1299 cells (1.5×10^5 cells) and MCF-7 cells (3.0×10^5 cells), and the cells were cultured in a 37° C. and 5% carbon dioxide environment for 24 hours in order for a confluent monolayer of cells to be formed. After that, the culture medium was removed, and the cells were washed with a phosphate buffer. […] Cell migration was observed under an automated microscope, and a quantitative analysis of cells was performed at the same time.

MCF-7 cells [24] = settings: 150 μM, 48 hours
Description: as §10

O=C(O)c1cc2cc(Br)ccc2cc1O [7-bromo-3-hydroxy-2-naphthoic acid]
IC50 (human ME2): 308 µM

O=C(O)c1cc(Cc2ccc(O)c(C(=O)O)c2)ccc1O [MDSA, 5,5′-methylenedisalicylic acid]
NADPH content (H1299 cells [1]): reduce | pyruvate content (H1299 cells [1]): reduce | NADPH content (MCF-7 cells [2]): not reduced significantly | pyruvate content (MCF-7 cells [2]): not reduced significantly | cell invasion (H1299 cells [3]): inhibit | cell invasion (MCF-7 cells [4]): cannot inhibit | ATP content (H1299 cells [5]): lower | ROS content (H1299 cells [5]): increase | spare respiratory capacity (MCF-7 cells [6]): remained the same | ATP generation (mitochondrial electron transport chain) (H1299 cells [7]): lowered

O=C(O)c1cccc(C(=O)c2ccccc2)c1 [3-benzoyl-benzoic acid]
IC50 (human ME2): 652 µM

O=C(O)c1cc2cc(O)ccc2cc1O [3,7-dihydroxy-2-naphthoic acid]
IC50 (human ME2): 37.6 µM

O=C(O)c1ccccc1O [Salicylic acid]
IC50 (human ME2): 801 µM

O=C(O)c1cc2ccccc2cc1O [3-hydroxy-2-naphthoic acid]
IC50 (human ME2): 105 µM | inhibiting the activity of ME2 (in words) (human ME2): relatively effective

O=C(O)c1cc2ccccc2c(Cc2c([O-])c(C(=O)O)cc3ccccc23)c1[O-].[Na+].[Na+] [Na2EA, disodium embonate]
fructose-6-phosphate (F-6-P) content (HL-60 cells [8]): suppress | glucose-1-phosphate (G-1-P) content (HL-60 cells [8]): suppress | glucose-6-phosphate (G-6-P) content (HL-60 cells [8]): suppress | glutamic acid content (HL-60 cells [8]): increasing | glutamine content (HL-60 cells [8]): increasing | IC50 (HL-60 cells [9]): ~120 µM | IC50 (MV4-11 cells [10]): ~120 µM | IC50 (THP-1 cells [11]): ~120 µM | mitochondrial proton leak (MV4-11 cells [12]): lowered | oxygen consumption rate (MV4-11 cells [12]): lowered | yield of ATP by the mitochondrial electron transport chains (MV4-11 cells [12]): lowered | mitochondrial proton leak (HL-60 cells [13]): lowered | oxygen consumption rate (HL-60 cells [13]): lowered | yield of ATP by the mitochondrial electron transport chains (HL-60 cells [13]): lowered | AML cells in mice (CD33+ / CD45+ stained cells in peripheral blood and bone marrow) (THP-1 cells [14]): reduce | effectiveness in reducing AML cells compared with EA (THP-1 cells [14]): more effective in reducing AML cells than EA | mitochondrial proton leak (THP-1 cells [15]): lowered | oxygen consumption rate (THP-1 cells [15]): lowered | yield of ATP by the mitochondrial electron transport chains (THP-1 cells [15]): lowered | apoptosis rate (HL-60 cells [16]): 60-75% | apoptosis rate (MV4-11 cells [17]): 60-75% | apoptosis rate (THP-1 cells [18]): 60-75% | ATP content (HL-60 cells [19]): greatly reduced | NAD+/NADH ratio (HL-60 cells [19]): increased | NADH content (HL-60 cells [19]): reduced | NADPH content (HL-60 cells [19]): greatly reduced | ROS steady state (HL-60 cells [19]): destroyed | glutamic acid content (HL-60 cells [19]): increased | pyruvate content (HL-60 cells [19]): reduced | ATP content (MV4-11 cells [20]): greatly reduced | NAD+/NADH ratio (MV4-11 cells [20]): increased | NADH content (MV4-11 cells [20]): reduced | NADPH content (MV4-11 cells [20]): greatly reduced | ROS steady state (MV4-11 cells [20]): destroyed | glutamic acid content (MV4-11 cells [20]): increased | pyruvate content (MV4-11 cells [20]): reduced | ATP content (THP-1 cells [21]): greatly reduced | NAD+/NADH ratio (THP-1 cells [21]): increased | NADH content (THP-1 cells [21]): reduced | NADPH content (THP-1 cells [21]): greatly reduced | ROS steady state (THP-1 cells [21]): destroyed | glutamic acid content (THP-1 cells [21]): increased | pyruvate content (THP-1 cells [21]): reduced | AML cells in mice (CD33+ / CD45+ stained cells in peripheral blood and bone marrow) (MV4-11 cells [22]): reduce | effectiveness in reducing AML cells compared with EA (MV4-11 cells [22]): more effective in reducing AML cells than EA

O=C(O)c1ccc2cc(C(=O)O)ccc2c1 [2,6-dicarboxy naphthalene]
IC50 (human ME2): 353 µM

O=C(O)c1ccc2ccccc2c1O [1-hydroxy-2-naphthoic acid]
IC50 (human ME2): 74.7 µM | inhibiting the activity of ME2 (in words) (human ME2): relatively effective

O=C(O)c1cc2ccccc2c(Cc2c(O)c(C(=O)O)cc3ccccc23)c1O [EA, 4,4′-methylene-bis(3-hydroxy-2-naphthoic acid)]
NADPH content (H1299 cells [1]): reduce | pyruvate content (H1299 cells [1]): reduce | cell migration (H1299 cells [23]): inhibit | NADPH content (MCF-7 cells [2]): not reduced significantly | pyruvate content (MCF-7 cells [2]): not reduced significantly | cell invasion (H1299 cells [3]): inhibit | cell invasion (MCF-7 cells [4]): cannot inhibit | cell migration (MCF-7 cells [24]): cannot inhibit | ATP content (H1299 cells [5]): lower | ROS content (H1299 cells [5]): increase | AML cells in mice (CD33+ / CD45+ stained cells in peripheral blood and bone marrow) (THP-1 cells [14]): reduce | ATP generation (MCF-7 cells [6]): remained the same | basal respiration rate (MCF-7 cells [6]): remained the same | maximum respiration rate (MCF-7 cells [6]): remained the same | spare respiratory capacity (MCF-7 cells [6]): remained the same | ATP generation (mitochondrial electron transport chain) (H1299 cells [7]): reduced | basal respiration rate (H1299 cells [7]): reduced | maximum respiration rate (H1299 cells [7]): reduced | spare respiratory capacity (H1299 cells [7]): reduced | AML cells in mice (CD33+ / CD45+ stained cells in peripheral blood and bone marrow) (MV4-11 cells [22]): reduce

O=C(O)c1cc2cccc(O)c2cc1O [3,5-dihydroxy-2-naphthoic acid]
IC50 (human ME2): 12.4 µM | inhibiting the activity of ME2 (in words) (human ME2): relatively effective
